System: rumen metabolites (Dimethylsulfone)
Experiment: Rumen metabolites in rumen fluid of fistulated steers, quantified by NMR after 21 days of treatment
Type: in vivo, Brahman steers (Bos indicus)
Conditions: for Dimethylsulfone in rumen fluid: rumen fluid 3 h post feeding, days 20 and 21, 4 steers; for Change of the methyl donor (dimethylsulfone) in rumen fluid versus control period, in words: 21 days of treatment, Brahman steers
From the text: Eight fistulated Brahman steers (Bos indicus) were randomly allocated to two groups (4 animals per group) and received a forage ad libitum diet (Rhode grass hay (Chloris […]), chemical composition: DM, 917 g/kg fresh matter; in g/kg of DM: OM, 806; CP, 169; NDF, 661; ADF, 359; ADL, 46; ash, 116 and GE 17.38 MJ/kg). […] Animals were adapted to the diet over a 21 d period. After that initial period, experimental animals were placed into individual pens in an animal house for the measurement of intakes (10 d) and were treated with cyclodextrin (2 g/100 kg LW) and molasses (60 mL/d). On the last 2 days animals were placed into open-circuit respiration chambers for collection of rumen samples. […] On days 20 and 21 of treatment both groups were placed in open-circuit respiration chambers for rumen fluid collection. Rumen fluid samples (approx. 60 mL per animal) were collected using a probe with 2 layers of cheesecloth through the cannula of the animal at 3 h post feeding, during confinement in respiration chambers to determine rumen metabolites.

Compound	Dimethylsulfone in rumen fluid (2.5 g propanediol mononitrate/animal/day for 21 days, control period value 20) [μmol/L rumen fluid]	Change of the methyl donor (dimethylsulfone) in rumen fluid versus control period, in words	Dimethylsulfone in rumen fluid (1.6 g chloroform-CD/100 kg LW for 21 days, control period value 21) [μmol/L rumen fluid]
O=[N+]([O-])OCCCO [PDMN, 1,3-propanediol mononitrate]	113	statistically significant increase	
ClC(Cl)Cl [Chloroform, chloroform]		statistically significant increase	80

— patent publication US20230320999A1, “NON-THERAPEUTIC METHODS FOR ALLEVIATING OR REDUCING STRESS SYMPTOMS OF RUMINANTS” (DSM IP Assets B.V., priority 2018, published 2023)
